{"source": "patent US6583147B1", "about": "“Pyrazolopyrimidinone derivatives for the treatment of impotence” (Dong A Pharm Co., Ltd., priority 1998, dated 2003)", "key": {"rats": {"system": "rats", "experiment": "Penile erection test using rats", "type": "in vivo, rat", "conditions": "oral single dose 10 mg/kg in 0.5% methyl cellulose, observed for 2 hours"}, "[1]": {"biological_target": "T1, Phosphodiesterase-5 enzyme (PDE 5) (Homo sapiens, UniProt O76074)", "T1 construct": "separated by HPLC (Mono Q anion exchange column) with concentration gradient of 0-500 mM NaCl to elute PDE isozymes; from tissue; host or cells: human corpus cavernosal tissue", "experiment": "Test for phosphodiesterase-5 (PDE 5) activity", "type": "biochemical", "conditions": "PDE 5 fraction from human corpus cavernosal tissues"}, "[2]": {"experiment": "Acute oral toxicity test in rats", "conditions": "SD, rat, in vivo, 1 g/kg; rats, oral single dose; read-out: lethal dose (LD50) of oral administration"}}, "data": [{"smiles": "CCCc1nn(C)c2c(=O)[nH]c(-c3cc(S(=O)(=O)Nc4ccc(C(C)C)cc4)ccc3OCC)nc12", "note": "[Example 31, 5-[2-ethoxy-5-(4-isopropylphenylamidosulfonyl)phenyl]-1-methyl-3-propyl-1,6-dihydro-7H-pyrazolo(4,3-d)pyrimidin-7-one]", "values": [{"measurement": "PEI (penile erection index)", "setting": "rats", "value": "300.0 ± 0"}, {"measurement": "genital grooming (number of genital groomings)", "setting": "rats", "value": "3.3 ± 0.6"}, {"measurement": "IC50", "setting": "[1]", "value": 30.6, "unit": "nM"}, {"measurement": "LD50", "setting": "[2]", "value": "> 1000", "unit": "mg/kg"}]}, {"smiles": "CCCc1nn(CC)c2c(=O)[nH]c(-c3cc(S(=O)(=O)Nc4ccncc4)ccc3OCC)nc12", "note": "[Example 36, 5-[2-ethoxy-5-(4-pyridylamidosulfonyl)phenyl]-1-ethyl-3-propyl-1,6-dihydro-7H-pyrazolo(4,3-d)pyrimidin-7-one]", "values": [{"measurement": "PEI (penile erection index)", "setting": "rats", "value": "200.0 ± 173.2"}, {"measurement": "genital grooming (number of genital groomings)", "setting": "rats", "value": "1.3 ± 0.6"}, {"measurement": "IC50", "setting": "[1]", "value": 3.09, "unit": "nM"}, {"measurement": "LD50", "setting": "[2]", "value": "> 1000", "unit": "mg/kg"}]}, {"smiles": "CCCc1nn(CC)c2c(=O)[nH]c(-c3cc(S(=O)(=O)Nc4cccnc4)ccc3OCC)nc12", "note": "[Example 40, 5-[2-ethoxy-5-(3-pyridylamidosulfonyl)phenyl]-1-ethyl-3-propyl-1,6-dihydro-7H-pyrazolo(4,3-d)pyrimidin-7-one]", "values": [{"measurement": "PEI (penile erection index)", "setting": "rats", "value": "177.8 ± 203.7"}, {"measurement": "genital grooming (number of genital groomings)", "setting": "rats", "value": "1.7 ± 1.5"}, {"measurement": "IC50", "setting": "[1]", "value": 8.7, "unit": "nM"}, {"measurement": "LD50", "setting": "[2]", "value": "> 1000", "unit": "mg/kg"}]}]}
